In patent US12180207B2 (ARRAY BIOPHARMA INC., priority 2018, dated 2024):

Assays:
[1] = target: phosphorylated FGFR3 (SEQ ID NO: 5, amino acids 449 to 759) (Homo sapiens (Human), UniProt P22607); experiment: FGFR enzyme binding assay (HTRF tracer displacement), FGFR3; details: 5 nM phosphorylated FGFR3, average of multiple determinations if made
Method in brief: (§1)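 Kinase and tracer were incubated with compound for 60 minutes at 22° C. Tracer displacement was then measured by HTRF, and results were expressed as POC with 1 μM control inhibitor defining full displacement.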

[2] = target: recombinant human FGFR1 catalytic domain (amino acids 308-731) (Homo sapiens (Human), UniProt P11362); experiment: FGFR1 enzyme activity assay (LanthaScreen TR-FRET); format: biochemical; details: 20 min incubation at 22° C., average of multiple determinations if made, read-out: FGFR1 Enz FRET IC50
Method in brief: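 His-tagged FGFR1 kinase domain with 100 nM Alexa Fluor 647-poly-GT peptide and ATP in pH 7.5 HEPES/MgCl2 buffer with 2% DMSO, 20 min at 22 °C. Quenched with EDTA plus 2 nM Eu-PY20 antibody and read after 60 min. IC50 comes from a 4-parameter fit of percent of control.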

[3] = target: recombinant human FGFR3 (amino acids R397-T806) (Homo sapiens (Human), UniProt P22607); experiment: FGFR3 enzyme activity assay (LanthaScreen TR-FRET); format: biochemical; details: 25 μM ATP, 10 min incubation at 22° C., average of multiple determinations if made, read-out: FGFR3 Enz FRET IC50
Method in brief: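 GST-HIS6-tagged human FGFR3 (R397-T806) was reacted with 100 nM Alexa Fluor 647-Poly-GT substrate and 25 μM ATP plus compound in HEPES/MgCl2/Triton buffer, pH 7.5, 2% DMSO, for 10 min at 22 °C.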

[4] = target: dephosphorylated FGFR1 (SEQ ID NO: 1, amino acids 458 to 765) (Homo sapiens (Human), UniProt P11362); experiment: FGFR enzyme binding assay (HTRF tracer displacement), FGFR1; details: 5 nM dephosphorylated FGFR1, average of multiple determinations if made
Method in brief: as §1

[5] = target: recombinant human FGFR2 cytoplasmic domain (amino acids 403-822) (Homo sapiens (Human), UniProt P21802); experiment: FGFR2 enzyme activity assay (LanthaScreen TR-FRET); format: biochemical; details: 15 μM ATP, 20 min incubation at 22° C., average of multiple determinations if made, read-out: FGFR2 Enz FRET IC50
Method in brief: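 Substrate phosphorylation was read by TR-FRET using Eu-PY20 antibody (60 min, 22 °C) after a 20 min, 22 °C reaction. The reaction used 15 μM ATP, 100 nM fluorescent poly-GT peptide and His-tagged FGFR2 403-822 ([…]) at pH 7.5 with 2% DMSO.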

Sequence of dephosphorylated FGFR1 (SEQ ID NO: 1, amino acids 458 to 765) (P11362 458-765): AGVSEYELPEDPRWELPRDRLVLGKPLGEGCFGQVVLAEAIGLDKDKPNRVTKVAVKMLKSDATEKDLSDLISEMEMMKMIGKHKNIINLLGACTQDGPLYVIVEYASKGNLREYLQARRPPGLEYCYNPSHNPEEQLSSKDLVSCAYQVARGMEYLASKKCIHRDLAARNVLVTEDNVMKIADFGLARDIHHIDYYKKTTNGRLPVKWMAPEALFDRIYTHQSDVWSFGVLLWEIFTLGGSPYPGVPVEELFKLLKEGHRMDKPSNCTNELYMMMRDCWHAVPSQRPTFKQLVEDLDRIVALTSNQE
Sequence of recombinant human FGFR2 cytoplasmic domain (amino acids 403-822) (P21802 402-821): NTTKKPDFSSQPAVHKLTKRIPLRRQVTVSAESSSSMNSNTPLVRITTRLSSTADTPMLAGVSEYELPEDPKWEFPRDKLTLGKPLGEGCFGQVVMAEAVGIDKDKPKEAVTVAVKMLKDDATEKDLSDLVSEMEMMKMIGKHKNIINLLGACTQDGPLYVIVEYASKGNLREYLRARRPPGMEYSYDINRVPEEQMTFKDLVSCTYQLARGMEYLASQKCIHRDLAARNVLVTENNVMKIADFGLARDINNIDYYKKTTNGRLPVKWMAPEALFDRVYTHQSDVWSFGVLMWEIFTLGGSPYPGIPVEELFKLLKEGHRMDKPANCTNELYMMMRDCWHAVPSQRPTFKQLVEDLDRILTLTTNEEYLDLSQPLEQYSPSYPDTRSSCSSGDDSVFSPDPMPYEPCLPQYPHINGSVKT
Sequence of recombinant human FGFR3 (amino acids R397-T806) (P22607 397-806): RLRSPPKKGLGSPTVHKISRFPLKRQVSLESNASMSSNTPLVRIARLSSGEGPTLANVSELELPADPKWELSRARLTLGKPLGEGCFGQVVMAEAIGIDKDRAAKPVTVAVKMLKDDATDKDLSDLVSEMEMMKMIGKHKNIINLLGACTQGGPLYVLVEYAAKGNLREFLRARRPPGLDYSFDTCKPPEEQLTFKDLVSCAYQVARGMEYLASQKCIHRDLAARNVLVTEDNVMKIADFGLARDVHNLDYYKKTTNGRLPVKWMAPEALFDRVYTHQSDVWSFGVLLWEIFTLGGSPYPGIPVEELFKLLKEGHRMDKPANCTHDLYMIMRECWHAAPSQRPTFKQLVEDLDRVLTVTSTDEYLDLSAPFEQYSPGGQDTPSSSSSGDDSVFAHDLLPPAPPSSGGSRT
Sequence of phosphorylated FGFR3 (SEQ ID NO: 5, amino acids 449 to 759) (P22607 449-759): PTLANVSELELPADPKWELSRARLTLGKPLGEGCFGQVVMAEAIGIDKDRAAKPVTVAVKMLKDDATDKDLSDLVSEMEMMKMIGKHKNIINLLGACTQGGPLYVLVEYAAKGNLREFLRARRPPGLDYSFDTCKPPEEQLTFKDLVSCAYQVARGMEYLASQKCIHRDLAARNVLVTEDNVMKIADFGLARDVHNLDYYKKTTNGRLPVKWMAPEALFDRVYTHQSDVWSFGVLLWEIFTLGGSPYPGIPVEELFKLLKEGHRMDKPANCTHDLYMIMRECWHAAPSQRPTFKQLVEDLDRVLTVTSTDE
Sequence of recombinant human FGFR1 catalytic domain (amino acids 308-731) (P11362 other isoform, or with tags, fused parts or gaps): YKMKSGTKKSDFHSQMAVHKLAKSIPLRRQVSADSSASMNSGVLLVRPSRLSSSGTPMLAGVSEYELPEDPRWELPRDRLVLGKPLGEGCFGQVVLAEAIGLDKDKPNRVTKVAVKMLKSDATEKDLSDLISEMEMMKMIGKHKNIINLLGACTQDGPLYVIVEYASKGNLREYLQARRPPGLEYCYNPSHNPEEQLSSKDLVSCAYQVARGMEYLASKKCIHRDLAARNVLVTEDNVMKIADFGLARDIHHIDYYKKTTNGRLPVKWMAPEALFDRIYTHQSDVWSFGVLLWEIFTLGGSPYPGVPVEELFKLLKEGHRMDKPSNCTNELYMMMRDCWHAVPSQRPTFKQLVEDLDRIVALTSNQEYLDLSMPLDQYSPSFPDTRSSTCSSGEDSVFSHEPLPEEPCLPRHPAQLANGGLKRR

| SMILES | IC50 [1] [nM] | IC50 [2] [nM] | IC50 [3] [nM] | IC50 [4] [nM] | IC50 [5] [nM] |
| --- | --- | --- | --- | --- | --- |
| C=CC(=O)N1CC[C@@H](C(=O)N2CCC(n3ncc(-c4cc(OC)c5c(C#N)cnn5c4)c3C)CC2)C1 [Example 83, (R)-6-(1-(1-(1-acryloylpyrrolidine-3-carbonyl)piperidin-4-yl)-5-methyl-1H-pyrazol-4-yl)-4-methoxypyrazolo[1,5-a]pyridine-3-carbonitrile] | 14 | 77 | 7 | 420 | 9 |
| C=CC(=O)N1CC(C(=O)N2CCC(n3ncc(-c4cc(OC)c5c(C#N)cnn5c4)c3C)CC2)C1 [Example 84, 6-(1-(1-(1-acryloylazetidine-3-carbonyl)piperidin-4-yl)-5-methyl-1H-pyrazol-4-yl)-4-methoxypyrazolo[1,5-a]pyridine-3-carbonitrile] | 22 | 100 | 6 | 777 | 15 |
| C=CC(=O)N1CC(F)(C(=O)N2CCC(n3ncc(-c4cc(OC)c5c(C#N)cnn5c4)c3C)CC2)C1 [Example 85, 6-(1-(1-(1-acryloyl-3-fluoroazetidine-3-carbonyl)piperidin-4-yl)-5-methyl-1H-pyrazol-4-yl)-4-methoxypyrazolo[1,5-a]pyridine-3-carbonitrile] | 3 | 77 | 7 | 247 | 13 |
| C=CC(=O)N1CC(C)(C(=O)N2CCC(n3ncc(-c4cc(OC)c5c(C#N)cnn5c4)c3C)CC2)C1 [Example 86, 6-(1-(1-(1-acryloyl-3-methylazetidine-3-carbonyl)piperidin-4-yl)-5-methyl-1H-pyrazol-4-yl)-4-methoxypyrazolo[1,5-a]pyridine-3-carbonitrile] | 9 | 617 | 11 | 342 | 96 |
| C=CC(=O)N1CC(C(=O)N2CCC(n3ncc(-c4cc(OC)c5c(C#N)cnn5c4)c3C)CC2)C1(C)C (stereo not drawn) [Example 87, 6-(1-(1-(1-acryloyl-2,2-dimethylazetidine-3-carbonyl)piperidin-4-yl)-5-methyl-1H-pyrazol-4-yl)-4-methoxypyrazolo[1,5-a]pyridine-3-carbonitrile] | 16 | 240 | 32 | 322 | 18 |
| C=CC(=O)N1CC(OC)(C(=O)N2CCC(n3ncc(-c4cc(OC)c5c(C#N)cnn5c4)c3C)CC2)C1 [Example 88, 6-(1-(1-(1-acryloyl-3-methoxyazetidine-3-carbonyl)piperidin-4-yl)-5-methyl-1H-pyrazol-4-yl)-4-methoxypyrazolo[1,5-a]pyridine-3-carbonitrile] | 3 | 152 | 29 | 202 | 69 |
| C=CC(=O)N1CC(CN2CCC(n3ncc(-c4cc(OC)c5c(C#N)cnn5c4)c3C)CC2)C1 [Example 89, 6-(1-(1-((1-acryloylazetidin-3-yl)methyl)piperidin-4-yl)-5-methyl-1H-pyrazol-4-yl)-4-methoxypyrazolo[1,5-a]pyridine-3-carbonitrile] | 8 | 108 | 15 | 236 | 50 |
| C=CC(=O)N1CC(C)(CN2CCC(n3ncc(-c4cc(OC)c5c(C#N)cnn5c4)c3C)CC2)C1 [Example 90, 6-(1-(1-((1-acryloyl-3-methylazetidin-3-yl)methyl)piperidin-4-yl)-5-methyl-1H-pyrazol-4-yl)-4-methoxypyrazolo[1,5-a]pyridine-3-carbonitrile] | 14 | 165 | 21 | 379 | 56 |
| C=CC(=O)N1CC(CN2CCC(n3ncc(-c4cc(OC)c5c(C#N)cnn5c4)c3C)CC2)(OC)C1 [Example 91, 6-(1-(1-((1-acryloyl-3-methoxyazetidin-3-yl)methyl)piperidin-4-yl)-5-methyl-1H-pyrazol-4-yl)-4-methoxypyrazolo[1,5-a]pyridine-3-carbonitrile] | 2 | 197 | 19 | 284 | 99 |
| C=CC(=O)N1CC(CN2CC(n3ncc(-c4cc(OC)c5c(C#N)cnn5c4)c3C)C2)C1 [Example 92] | 49 | 285 | 39 | 444 | 131 |
| C=CC(=O)N1CC(C)(CN2CC(n3ncc(-c4cc(OC)c5c(C#N)cnn5c4)c3C)C2)C1 [Example 93, 6-(1-(1-((1-acryloyl-3-methylazetidin-3-yl)methyl)azetidin-3-yl)-5-methyl-1H-pyrazol-4-yl)-4-methoxypyrazolo[1,5-a]pyridine-3-carbonitrile] | 40 | 376 | 41 | 482 | 127 |
| C=CC(=O)N1CC(C(=O)N2CCC(n3cc(-c4cc(OC)c5c(C#N)cnn5c4)c(C)n3)CC2)C1 [Example 94, 6-(1-(1-(1-acryloylazetidine-3-carbonyl)piperidin-4-yl)-3-methyl-1H-pyrazol-4-yl)-4-methoxypyrazolo[1,5-a]pyridine-3-carbonitrile] | 18 | 73 | 8 | 346 | 22 |
| C=CS(=O)(=O)Nc1cccc(C(=O)N2CCC(n3cc(-c4cc(OC)c5c(C#N)cnn5c4)cn3)CC2)c1 [Example 188, N-(3-(4-(4-(3-cyano-4-methoxypyrazolo[1,5-a]pyridin-6-yl)-1H-pyrazol-1-yl)piperidine-1-carbonyl)phenyl)eth-enesulfonamide] | 1 | 11 | 3 | 14 | 5 |
| C=CS(=O)(=O)N[C@H]1CC[C@H](C(=O)N2CCC(n3cc(-c4cc(OC)c5c(C#N)cnn5c4)cn3)CC2)C1 [Example 190, N-((1S,3S)-3-(4-(4-(3-cyano-4-methoxypyrazolo[1,5-a]pyridin-6-yl)-1H-pyrazol-1-yl)piperidine-1-carbonyl)cyclopentyl)-ethenesulfonamide] | 3 | 9 | 1 | 37 | 3 |
| C=CS(=O)(=O)N[C@@H]1CC[C@H](C(=O)N2CCC(n3cc(-c4cc(OC)c5c(C#N)cnn5c4)cn3)CC2)C1 [Example 191, N-((1R,3S)-3-(4-(4-(3-cyano-4-methoxypyrazolo[1,5-a]pyridin-6-yl)-1H-pyrazol-1-yl)piperidine-1-carbonyl)cyclopentyl)-ethenesulfonamide] | 10 | 19 | 4 | 103 | 5 |
